Measured values from patent US20110002995A1, “PHARMACEUTICAL COMPOSITION FOR THE TREATMENT AND PREVENTION OF CARDIAC DISEASE” (MAZENCE INC., priority 2007, published 2011).

Key:
[1] = tested on: TAC-induced heart hypertrophy; assay: Inhibitory effect on heart hypertrophy, TAC model (Experimental Example 1); format: in vivo, C57BL/6J male mice
Protocol: (§1) 8-week-old C57BL/6J male mice (n=40, 20-23 g, SLC, Japan) were purchased and subjected to transverse aortic constriction (TAC).
(§2) The thorax was incised and the thymus was removed.
(§3) 5 weeks after the operation of TAC for the heart failure model, a difference of a fractional shortening (F.S) value (%) with the control group was confirmed using echocardiogram, and the degree of heart failure induction and therapeutic effects were then determined.
(§4) Further, left ventricular end-diastolic and systolic diameters were measured according to the standard method of the American Society for Echocardiography. Fractional shortening (%) which is an indicator of the ventricular contractility is calculated according to the following equation.
(§5) F.S=(left ventricular end-diastolic diameter)−(left ventricular end-systolic diameter)/left ventricular end-diastolic diameter
(§6) Among compounds of Formula 1, inhibitory effects of 7,8-dihydro-2,2-dimethyl-2H-naphtho(2,3-b)dihydropyran-7,8-dione (hereinafter, referred to as “MB660”) on heart hypertrophy and heart failure were examined.
(§7) 2 days after TAC treatment, animals were given test samples. Induction of heart hypertrophy was carried out over 2 weeks after TAC treatment. Induction of heart failure was carried out over 5 weeks after TAC treatment.

[2] = tested on: TAC-induced heart failure; assay: Inhibitory effect on heart failure, TAC model (Experimental Example 1); format: in vivo, C57BL/6J male mice
Protocol: as §1, §2, §3, §4, §5, §6, §7

[3] = tested on: TAC-induced heart hypertrophy; assay: Reversal of heart hypertrophy, TAC model (Experimental Example 2); format: in vivo, C57BL/6J male mice; conditions: 150 mg/kg for 4 weeks, starting 2 weeks after TAC
Protocol: as §1, §2, §3, §4, §5
(§8) In order to measure effects of MB660 on the reversal of heart hypertrophy and heart failure, the experiment was carried out as follows.
(§9) After induction of heart hypertrophy (2 weeks after TAC treatment) and heart failure (5 weeks after TAC treatment), animals were given test samples for 4 weeks.

[4] = tested on: TAC-induced heart failure; assay: Reversal of heart failure, TAC model (Experimental Example 2); format: in vivo, C57BL/6J male mice; conditions: 150 mg/kg for 4 weeks, starting 5 weeks after TAC
Protocol: as §1, §2, §3, §4, §5, §8, §9

[5] = tested on: TAC-induced heart hypertrophy; assay: Changes of heart size in heart hypertrophy model (Experimental Example 4); format: in vivo, C57BL/6J male mice; conditions: 150 mg/kg orally for two weeks from one week after TAC, heart excised three weeks after TAC, FIG. 15
From the text: as §2
In order to examine changes of heart size in response to the administration of MB660, experimental animals were divided into four groups as given in Table 4 below:
One week after TAC treatment, animals were orally given MB660 for two weeks. Three weeks after TAC treatment, animals were sacrificed and the heart was excised, followed by size examination.

[6] = tested on: cardiomyocytic mitochondria, TAC-induced heart hypertrophy; assay: Mitochondrial changes of cardiomyocytes in heart hypertrophy model (Experimental Example 5); format: in vivo, C57BL/6J mice; conditions: orally for 4 weeks after induction of heart hypertrophy (2 weeks after TAC), transmission electron microscope, FIG. 16
From the text: (§10) Animals were orally given test samples for 4 weeks after induction of heart hypertrophy (2 weeks after TAC treatment) and heart failure (5 weeks after TAC treatment). The left ventricular myocardial tissues of animals were fixed in 2.5% glutaraldehyde to prepare tissue sections, and mitochondrial morphological changes were examined under a transmission electron microscope.
(§11) In C57BL/6J mice with TAC-induced heart hypertrophy and heart failure, alterations in cardiomyocytic mitochondria in response to the administration of MB660 were observed.

[7] = tested on: cardiomyocytic mitochondria, TAC-induced heart failure; assay: Mitochondrial changes of cardiomyocytes in heart failure model (Experimental Example 5); format: in vivo, C57BL/6J mice; conditions: orally for 4 weeks after induction of heart failure (5 weeks after TAC), transmission electron microscope, FIG. 17
From the text: as §10, §11

[8] = tested on: TAC-induced heart hypertrophy; conditions: FIG. 14
From the text: For the operation of TAC, C57BL/6 male mice were anesthetized with an intraperitoneal injection of a liquid anesthetic (ketamine:xylazine=20:1, kg/ml), and a 22-gauge IV catheter needle was placed into the trachea, followed by connection with a ventilator (Harvard Apparatus) for artificial forcible respiration. The thorax was incised and the thymus was removed. Following the removal of the thymus, the transverse aorta between the right subclavian artery and the left subclavian artery was banded (7-0, silk) with an overlaying blunted 27-gauge needle, and then the needle was quickly removed to create a defined constriction. The thorax was sutured with (5-0) silk to complete the surgery, and respiration of animals was then confirmed.
A ratio of heart weight (HW) to body weight (BW) (HW/BW ratio) and a ratio of heart weight (HW) to tibia length (HW/TL ratio) were respectively estimated using echocardiogram.
2 days after the operation of TAC, animals were orally given test samples for 2 weeks.

Which “HW/BW ratio vs non-MB660 treated TAC group” value ([1]; TAC MB(+), 150 mg/kg, given from 2 days after TAC, hypertrophy induced over 2 weeks, FIG. 1) does the source give for CC1(C)CCc2cc3c(cc2O1)=CC(=O)C(=O)C=3 [MB660, 7,8-dihydro-2,2-dimethyl-2H-naphtho(2,3-b)dihydropyran-7,8-dione] here?
The value was “significantly low value of heart hypertrophy”.

What about the “HW/TL ratio vs non-MB660 treated TAC group” value ([1]; TAC MB(+), 150 mg/kg, given from 2 days after TAC, hypertrophy induced over 2 weeks, FIG. 2) of the same compound?
The value was “significantly low value of heart hypertrophy”.

What about the “fractional shortening vs non-MB660 treated group” value ([1]; echocardiogram, heart hypertrophy-induced model, FIG. 3) of the same compound?
Its value is “significant increase”.

What about the “HW/BW ratio vs non-MB660 treated group” value ([2]; TAC MB(+), 150 mg/kg, given from 2 days after TAC, heart failure induced over 5 weeks, FIG. 4) of the same compound?
Its value is “significantly low values”.

And the “HW/TL ratio vs non-MB660 treated group” value ([2]; TAC MB(+), 150 mg/kg, given from 2 days after TAC, heart failure induced over 5 weeks, FIG. 5)?
Its value is “significantly low values”.

What about the “fractional shortening vs non-MB660 treated group” value ([2]; echocardiogram, heart failure-induced model) of the same compound?
Its value is “significantly increased”.

What about the “HW/BW lower than the non-MB660 treated group” value ([3]; FIG. 7) of the same compound?
Its value is at least 30%.

And the HW/BW value ([3]; FIG. 7)?
Its HW/BW value is 6.23.

What about the “HW/TL lower than the non-MB660 treated group” value ([3]; FIG. 8) of the same compound?
Its value is “about 25%”.

What about the HW/TL value ([3]; FIG. 8) of the same compound?
Its HW/TL value is 7.68.

And the “fractional shortening vs non-MB660 treated group” value ([3]; FIG. 9)?
The value was “significant increase”.

What about the “HW/BW ratio vs control group” value ([4]; FIG. 10) of the same compound?
The value was “low values”.

And the “HW/TL ratio vs control group” value ([4]; FIG. 11)?
Its value is “low values”.

What about the “fractional shortening vs control group” value ([4]; FIG. 12) of the same compound?
Its value is “significant increase”.

What about the “heart size, TAC group vs non-administered TAC control” value [5] of the same compound?
Its value is “significant decrease of the heart size”.

What about the “mitochondrial function/morphology of cardiomyocytes” value [6] of the same compound?
The value was “returned to the original condition”.

And the “mitochondrial function/morphology of cardiomyocytes” value [7]?
The value was “returned to the original condition”.

And the “HW/BW ratio vs control group (TAC)” value ([8]; 30, 60, 100, 150 mg/kg orally for 2 weeks from 2 days after TAC)?
The value was “significant decrease”.

What about the “HW/BW ratio, dependence on dose” value ([8]; 30 to 150 mg/kg orally for 2 weeks) of the same compound?
The value was “generally decreased with an increasing dose”.

And the “HW/BW ratio at 60 mg compared to the group with 30 mg” value ([8]; orally for 2 weeks)?
The value was “increased”.
